{"source": "ChEMBL document CHEMBL3872249", "about": "“Computer design, synthesis, and bioactivity analyses of drugs like fingolimod used in the treatment of multiple sclerosis” (Bioorg Med Chem, 2017)", "type_in_all_cases": "functional", "key": {"SH-SY5Y [1]": {"system": "SH-SY5Y", "experiment": "Effect on GCGR mRNA expression in human SH-SY5Y cells at EC10 by qPCR method relative to beta-actin"}, "U-118-MG [2]": {"system": "U-118-MG", "experiment": "Effect on IL18 mRNA expression in human U118MG cells at EC10 by qPCR method relative to beta-actin"}, "U-118-MG [3]": {"system": "U-118-MG", "experiment": "Effect on IL13 mRNA expression in human U118MG cells at EC10 by qPCR method relative to beta-actin"}, "U-118-MG [4]": {"system": "U-118-MG", "experiment": "Effect on CD4 mRNA expression in human U118MG cells at EC10 by qPCR method relative to beta-actin"}, "U-118-MG [5]": {"system": "U-118-MG", "experiment": "Effect on EDN1 mRNA expression in human U118MG cells at EC10 by qPCR method relative to beta-actin"}, "U-118-MG [6]": {"system": "U-118-MG", "experiment": "Effect on GRM1 mRNA expression in human U118MG cells at EC10 by qPCR method relative to beta-actin"}, "U-118-MG [7]": {"system": "U-118-MG", "experiment": "Effect on GRM2 mRNA expression in human U118MG cells at EC10 by qPCR method relative to beta-actin"}, "SK-N-SH [8]": {"system": "SK-N-SH", "experiment": "Effect on CXCL11 mRNA expression in human SK-N-SH cells at EC10 by qPCR method relative to beta-actin"}, "SK-N-SH [9]": {"system": "SK-N-SH", "experiment": "Effect on IL13 mRNA expression in human SK-N-SH cells at EC10 by qPCR method relative to beta-actin"}, "SK-N-SH [10]": {"system": "SK-N-SH", "experiment": "Effect on C1S mRNA expression in human SK-N-SH cells at EC10 by qPCR method relative to beta-actin"}, "SK-N-SH [11]": {"system": "SK-N-SH", "experiment": "Effect on EDN1 mRNA expression in human SK-N-SH cells at EC10 by qPCR method relative to beta-actin"}, "SH-SY5Y [12]": {"system": "SH-SY5Y", "experiment": "Effect on CSF1 mRNA expression in human SH-SY5Y cells at EC10 by qPCR method relative to beta-actin"}, "SH-SY5Y [13]": {"system": "SH-SY5Y", "experiment": "Effect on MAL mRNA expression in human SH-SY5Y cells at EC10 by qPCR method relative to beta-actin"}, "SH-SY5Y [14]": {"system": "SH-SY5Y", "experiment": "Effect on RAF1 mRNA expression in human SH-SY5Y cells at EC10 by qPCR method relative to beta-actin"}, "SH-SY5Y [15]": {"system": "SH-SY5Y", "experiment": "Effect on ITGB2 mRNA expression in human SH-SY5Y cells at EC10 by qPCR method relative to beta-actin"}, "SH-SY5Y [16]": {"system": "SH-SY5Y", "experiment": "Effect on CD44 mRNA expression in human SH-SY5Y cells at EC10 by qPCR method relative to beta-actin"}, "SH-SY5Y [17]": {"system": "SH-SY5Y", "experiment": "Effect on APP mRNA expression in human SH-SY5Y cells at EC10 by qPCR method relative to beta-actin"}, "SH-SY5Y [18]": {"system": "SH-SY5Y", "experiment": "Effect on HDAC1 mRNA expression in human SH-SY5Y cells at EC10 by qPCR method relative to beta-actin"}, "SH-SY5Y [19]": {"system": "SH-SY5Y", "experiment": "Effect on CYP19A1 mRNA expression in human SH-SY5Y cells at EC10 by qPCR method relative to beta-actin"}, "SH-SY5Y [20]": {"system": "SH-SY5Y", "experiment": "Effect on GRM7 mRNA expression in human SH-SY5Y cells at EC10 by qPCR method relative to beta-actin"}, "U-118-MG [21]": {"system": "U-118-MG", "experiment": "Effect on ITGB2 mRNA expression in human U118MG cells at EC10 by qPCR method relative to beta-actin"}, "U-118-MG [22]": {"system": "U-118-MG", "experiment": "Effect on HIF1A mRNA expression in human U118MG cells at EC10 by qPCR method relative to beta-actin"}, "U-118-MG [23]": {"system": "U-118-MG", "experiment": "Effect on STAT3 mRNA expression in human U118MG cells at EC10 by qPCR method relative to beta-actin"}, "U-118-MG [24]": {"system": "U-118-MG", "experiment": "Effect on OPRD1 mRNA expression in human U118MG cells at EC10 by qPCR method relative to beta-actin"}, "U-118-MG [25]": {"system": "U-118-MG", "experiment": "Effect on AGT mRNA expression in human U118MG cells at EC10 by qPCR method relative to beta-actin"}, "SK-N-SH [26]": {"system": "SK-N-SH", "experiment": "Effect on MAL mRNA expression in human SK-N-SH cells at EC10 by qPCR method relative to beta-actin"}, "SK-N-SH [27]": {"system": "SK-N-SH", "experiment": "Effect on ITGB2 mRNA expression in human SK-N-SH cells at EC10 by qPCR method relative to beta-actin"}, "SK-N-SH [28]": {"system": "SK-N-SH", "experiment": "Effect on CD44 mRNA expression in human SK-N-SH cells at EC10 by qPCR method relative to beta-actin"}, "SK-N-SH [29]": {"system": "SK-N-SH", "experiment": "Effect on APP mRNA expression in human SK-N-SH cells at EC10 by qPCR method relative to beta-actin"}, "SK-N-SH [30]": {"system": "SK-N-SH", "experiment": "Effect on HDAC1 mRNA expression in human SK-N-SH cells at EC10 by qPCR method relative to beta-actin"}, "SK-N-SH [31]": {"system": "SK-N-SH", "experiment": "Effect on GRM7 mRNA expression in human SK-N-SH cells at EC10 by qPCR method relative to beta-actin"}, "U-118-MG [32]": {"system": "U-118-MG", "experiment": "Effect on PTGDR mRNA expression in human U118MG cells at EC10 by qPCR method relative to beta-actin"}, "SH-SY5Y [33]": {"system": "SH-SY5Y", "experiment": "Effect on PLP1 mRNA expression in human SH-SY5Y cells at EC10 by qPCR method relative to beta-actin"}, "SH-SY5Y [34]": {"system": "SH-SY5Y", "experiment": "Effect on TGFB1 mRNA expression in human SH-SY5Y cells at EC10 by qPCR method relative to beta-actin"}, "SH-SY5Y [35]": {"system": "SH-SY5Y", "experiment": "Effect on TGFB2 mRNA expression in human SH-SY5Y cells at EC10 by qPCR method relative to beta-actin"}, "SH-SY5Y [36]": {"system": "SH-SY5Y", "experiment": "Effect on CCL5 mRNA expression in human SH-SY5Y cells at EC10 by qPCR method relative to beta-actin"}, "SH-SY5Y [37]": {"system": "SH-SY5Y", "experiment": "Effect on TNFRSF1B mRNA expression in human SH-SY5Y cells at EC10 by qPCR method relative to beta-actin"}, "U-118-MG [38]": {"system": "U-118-MG", "experiment": "Effect on TNFRSF1A mRNA expression in human U118MG cells at EC10 by qPCR method relative to beta-actin"}, "U-118-MG [39]": {"system": "U-118-MG", "experiment": "Effect on GRM4 mRNA expression in human U118MG cells at EC10 by qPCR method relative to beta-actin"}, "SK-N-SH [40]": {"system": "SK-N-SH", "experiment": "Effect on PLP1 mRNA expression in human SK-N-SH cells at EC10 by qPCR method relative to beta-actin"}, "SK-N-SH [41]": {"system": "SK-N-SH", "experiment": "Effect on TGFB1 mRNA expression in human SK-N-SH cells at EC10 by qPCR method relative to beta-actin"}}, "data": [{"compound": "CCCCCCCCn1nnnc1CCC(N)(CO)CO.Cl", "values": [{"measurement": "fold change (FC)", "setting": "SH-SY5Y [1]", "result": -4.2885}, {"measurement": "fold change (FC)", "setting": "U-118-MG [2]", "result": -3.772}, {"measurement": "fold change (FC)", "setting": "U-118-MG [3]", "result": -5.9963}, {"measurement": "fold change (FC)", "setting": "U-118-MG [4]", "result": -3.5323}, {"measurement": "fold change (FC)", "setting": "U-118-MG [5]", "result": 5.5464}, {"measurement": "fold change (FC)", "setting": "U-118-MG [6]", "result": -6.1329}, {"measurement": "fold change (FC)", "setting": "U-118-MG [7]", "result": -3.2823}, {"measurement": "fold change (FC)", "setting": "SK-N-SH [8]", "result": -3.5538}, {"measurement": "fold change (FC)", "setting": "SK-N-SH [9]", "result": -6.6894}, {"measurement": "fold change (FC)", "setting": "SK-N-SH [10]", "result": -5.1582}, {"measurement": "fold change (FC)", "setting": "SK-N-SH [11]", "result": 7.7711}]}, {"compound": "CCCCCCCCc1ccc(CCC(N)(CO)CO)cc1", "note": "[FINGOLIMOD]", "values": [{"measurement": "fold change (FC)", "setting": "SH-SY5Y [12]", "result": -3.1329}, {"measurement": "fold change (FC)", "setting": "SH-SY5Y [13]", "result": -5.5117}, {"measurement": "fold change (FC)", "setting": "SH-SY5Y [14]", "result": -5.0718}, {"measurement": "fold change (FC)", "setting": "SH-SY5Y [15]", "result": -3.9655}, {"measurement": "fold change (FC)", "setting": "SH-SY5Y [16]", "result": -4.0629}, {"measurement": "fold change (FC)", "setting": "SH-SY5Y [17]", "result": -10.004}, {"measurement": "fold change (FC)", "setting": "SH-SY5Y [18]", "result": -15.9446}, {"measurement": "fold change (FC)", "setting": "SH-SY5Y [19]", "result": -5.8869}, {"measurement": "fold change (FC)", "setting": "SH-SY5Y [20]", "result": -5.361}, {"measurement": "fold change (FC)", "setting": "U-118-MG [21]", "result": -4.0523}, {"measurement": "fold change (FC)", "setting": "U-118-MG [22]", "result": -3.2716}, {"measurement": "fold change (FC)", "setting": "U-118-MG [23]", "result": -2.5624}, {"measurement": "fold change (FC)", "setting": "U-118-MG [24]", "result": 3.818}, {"measurement": "fold change (FC)", "setting": "U-118-MG [25]", "result": 5.5368}, {"measurement": "fold change (FC)", "setting": "SK-N-SH [26]", "result": -4.2778}, {"measurement": "fold change (FC)", "setting": "SK-N-SH [27]", "result": -6.3947}, {"measurement": "fold change (FC)", "setting": "SK-N-SH [28]", "result": -4.3753}, {"measurement": "fold change (FC)", "setting": "SK-N-SH [29]", "result": -8.0801}, {"measurement": "fold change (FC)", "setting": "SK-N-SH [30]", "result": -6.6778}, {"measurement": "fold change (FC)", "setting": "SK-N-SH [31]", "result": -6.2306}, {"measurement": "fold change (FC)", "setting": "U-118-MG [32]", "result": -4.4856}]}, {"compound": "CCCCCCCCn1nnnc1-c1ccc(C(O)CC(N)(CO)CO)cc1.Cl", "note": "(stereo unspecified)", "values": [{"measurement": "fold change (FC)", "setting": "SH-SY5Y [33]", "result": 3.7859}, {"measurement": "fold change (FC)", "setting": "SH-SY5Y [34]", "result": -5.0784}, {"measurement": "fold change (FC)", "setting": "SH-SY5Y [35]", "result": -2.8716}, {"measurement": "fold change (FC)", "setting": "SH-SY5Y [36]", "result": -3.3855}, {"measurement": "fold change (FC)", "setting": "SH-SY5Y [37]", "result": -2.9117}, {"measurement": "fold change (FC)", "setting": "U-118-MG [38]", "result": -3.0144}, {"measurement": "fold change (FC)", "setting": "U-118-MG [39]", "result": -5.0773}, {"measurement": "fold change (FC)", "setting": "SK-N-SH [40]", "result": 4.9417}, {"measurement": "fold change (FC)", "setting": "SK-N-SH [41]", "result": -5.3267}]}]}
